Assay results reported in US10266537B2, “3-acetylenyl-pyrazole-pyrimidine derivative, and preparation method therefor and uses thereof” (Si Chuan University, priority 2015, dated 2019).

Legend:
Assay in all cases: Kinase inhibition assay (KinaseProfiler, 33P-ATP)
[1] = molecular target: Ret (V804L)(h) (Homo sapiens (Human), UniProt P07949, V804L); assay type: biochemical; conditions: read-out: The percentage of the remaining active protein
[2] = molecular target: ULK2(h) (Homo sapiens (Human), UniProt Q8IYT8); assay type: biochemical; conditions: read-out: The percentage of the remaining active protein
ULK2(h), sequence (Q8IYT8 whole entry): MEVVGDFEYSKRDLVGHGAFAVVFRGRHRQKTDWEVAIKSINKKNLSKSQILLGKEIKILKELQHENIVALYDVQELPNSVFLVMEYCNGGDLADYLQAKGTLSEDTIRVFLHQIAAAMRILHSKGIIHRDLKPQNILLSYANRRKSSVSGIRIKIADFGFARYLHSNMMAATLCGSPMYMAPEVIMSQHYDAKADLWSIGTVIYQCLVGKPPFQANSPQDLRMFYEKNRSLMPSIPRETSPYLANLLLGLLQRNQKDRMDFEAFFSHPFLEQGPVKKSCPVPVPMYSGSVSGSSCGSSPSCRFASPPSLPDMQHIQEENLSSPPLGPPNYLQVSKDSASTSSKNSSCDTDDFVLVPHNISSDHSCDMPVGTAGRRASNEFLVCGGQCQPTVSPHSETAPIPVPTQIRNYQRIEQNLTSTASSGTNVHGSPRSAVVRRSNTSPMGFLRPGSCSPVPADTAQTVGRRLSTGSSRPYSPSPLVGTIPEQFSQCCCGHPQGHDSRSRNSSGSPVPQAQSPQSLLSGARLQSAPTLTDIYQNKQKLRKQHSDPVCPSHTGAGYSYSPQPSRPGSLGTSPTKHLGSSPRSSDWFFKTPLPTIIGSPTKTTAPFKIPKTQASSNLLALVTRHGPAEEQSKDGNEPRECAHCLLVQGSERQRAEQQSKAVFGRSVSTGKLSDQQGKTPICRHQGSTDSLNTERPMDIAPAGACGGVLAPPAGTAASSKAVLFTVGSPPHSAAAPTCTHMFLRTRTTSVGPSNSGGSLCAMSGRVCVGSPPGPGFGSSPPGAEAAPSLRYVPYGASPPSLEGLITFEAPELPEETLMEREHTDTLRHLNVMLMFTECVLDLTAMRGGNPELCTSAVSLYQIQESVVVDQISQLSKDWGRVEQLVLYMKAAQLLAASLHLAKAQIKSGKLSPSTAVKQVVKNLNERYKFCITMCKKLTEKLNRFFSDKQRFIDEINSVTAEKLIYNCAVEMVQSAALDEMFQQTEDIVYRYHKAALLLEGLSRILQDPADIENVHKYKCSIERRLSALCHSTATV

[3] = molecular target: MST1(h) (Homo sapiens (Human), UniProt Q13043); assay type: biochemical; conditions: read-out: The percentage of the remaining active protein
[4] = molecular target: CaMKIIγ(h) (Homo sapiens (Human), UniProt Q13555); assay type: biochemical; conditions: read-out: The percentage of the remaining active protein
[5] = molecular target: Ret (Homo sapiens (Human), UniProt P07949); assay type: biochemical
Ret, sequence (P07949 29-1114): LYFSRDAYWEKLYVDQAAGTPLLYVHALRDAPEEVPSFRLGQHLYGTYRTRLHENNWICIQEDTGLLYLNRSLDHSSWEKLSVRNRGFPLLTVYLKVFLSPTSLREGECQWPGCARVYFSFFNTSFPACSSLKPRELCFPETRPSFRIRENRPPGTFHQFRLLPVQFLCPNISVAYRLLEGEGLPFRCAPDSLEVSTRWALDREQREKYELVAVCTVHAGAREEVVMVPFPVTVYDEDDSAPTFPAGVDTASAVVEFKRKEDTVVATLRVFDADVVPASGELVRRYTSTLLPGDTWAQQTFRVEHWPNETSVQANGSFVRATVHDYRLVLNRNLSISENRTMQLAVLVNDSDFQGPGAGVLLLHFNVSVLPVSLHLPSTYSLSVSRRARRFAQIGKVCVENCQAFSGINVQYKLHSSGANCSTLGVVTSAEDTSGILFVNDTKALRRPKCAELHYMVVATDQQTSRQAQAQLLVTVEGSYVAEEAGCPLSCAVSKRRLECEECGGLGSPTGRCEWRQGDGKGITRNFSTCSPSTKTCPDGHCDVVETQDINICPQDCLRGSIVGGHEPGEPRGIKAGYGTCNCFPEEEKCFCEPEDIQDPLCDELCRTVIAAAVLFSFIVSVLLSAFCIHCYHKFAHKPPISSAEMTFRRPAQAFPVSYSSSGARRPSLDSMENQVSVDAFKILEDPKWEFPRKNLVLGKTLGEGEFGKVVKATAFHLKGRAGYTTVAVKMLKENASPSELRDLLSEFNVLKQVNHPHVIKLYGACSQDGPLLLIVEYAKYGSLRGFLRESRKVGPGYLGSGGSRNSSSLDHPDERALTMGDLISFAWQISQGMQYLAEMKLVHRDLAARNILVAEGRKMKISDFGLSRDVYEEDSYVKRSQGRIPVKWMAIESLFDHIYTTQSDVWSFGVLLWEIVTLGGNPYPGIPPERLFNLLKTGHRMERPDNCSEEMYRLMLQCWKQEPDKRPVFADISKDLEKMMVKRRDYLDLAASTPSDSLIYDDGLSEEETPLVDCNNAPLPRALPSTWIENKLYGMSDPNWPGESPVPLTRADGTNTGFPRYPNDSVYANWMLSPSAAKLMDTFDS

[6] = molecular target: mTOR/FKBP12(h) (Homo sapiens (Human), UniProt P42345); assay type: biochemical; conditions: read-out: The percentage of the remaining active protein
[7] = molecular target: Met(Y1248D)(h) (Homo sapiens (Human), UniProt P08581, Y1248D); assay type: biochemical; conditions: read-out: The percentage of the remaining active protein
[8] = molecular target: GRK1(h) (Homo sapiens (Human), UniProt Q15835); assay type: biochemical; conditions: read-out: The percentage of the remaining active protein
[9] = molecular target: PIP5K1a(h) (Homo sapiens (Human), UniProt Q99755); assay type: biochemical; conditions: read-out: The percentage of the remaining active protein
[10] = molecular target: MAPK2(m) (Mus musculus (Mouse), UniProt P63085); assay type: biochemical; conditions: read-out: The percentage of the remaining active protein
[11] = test system: MLCK(h); assay type: biochemical, human; conditions: 10 μM
[12] = molecular target: TrkB (Homo sapiens (Human), UniProt Q16620); assay type: biochemical; conditions: TrkB(h), read-out: The percentage of the remaining active protein
[13] = molecular target: LKB1(h) (Homo sapiens (Human), UniProt Q15831); assay type: biochemical; conditions: read-out: The percentage of the remaining active protein
[14] = molecular target: EphA5 (Homo sapiens (Human), UniProt P54756); assay type: biochemical; conditions: EphA5(h), read-out: The percentage of the remaining active protein
[15] = molecular target: Abl(T315I) (Homo sapiens (Human), UniProt P00519, T315I); assay type: biochemical; conditions: Abl(T315I)(h); 10 μM; read-out: The percentage of the remaining active protein
[16] = molecular target: Pim-2(h) (Homo sapiens (Human), UniProt Q9P1W9); assay type: biochemical; conditions: read-out: The percentage of the remaining active protein
[17] = molecular target: PRK2(h) (Homo sapiens (Human), UniProt Q16513); assay type: biochemical; conditions: read-out: The percentage of the remaining active protein
PRK2(h), sequence (Q16513 whole entry): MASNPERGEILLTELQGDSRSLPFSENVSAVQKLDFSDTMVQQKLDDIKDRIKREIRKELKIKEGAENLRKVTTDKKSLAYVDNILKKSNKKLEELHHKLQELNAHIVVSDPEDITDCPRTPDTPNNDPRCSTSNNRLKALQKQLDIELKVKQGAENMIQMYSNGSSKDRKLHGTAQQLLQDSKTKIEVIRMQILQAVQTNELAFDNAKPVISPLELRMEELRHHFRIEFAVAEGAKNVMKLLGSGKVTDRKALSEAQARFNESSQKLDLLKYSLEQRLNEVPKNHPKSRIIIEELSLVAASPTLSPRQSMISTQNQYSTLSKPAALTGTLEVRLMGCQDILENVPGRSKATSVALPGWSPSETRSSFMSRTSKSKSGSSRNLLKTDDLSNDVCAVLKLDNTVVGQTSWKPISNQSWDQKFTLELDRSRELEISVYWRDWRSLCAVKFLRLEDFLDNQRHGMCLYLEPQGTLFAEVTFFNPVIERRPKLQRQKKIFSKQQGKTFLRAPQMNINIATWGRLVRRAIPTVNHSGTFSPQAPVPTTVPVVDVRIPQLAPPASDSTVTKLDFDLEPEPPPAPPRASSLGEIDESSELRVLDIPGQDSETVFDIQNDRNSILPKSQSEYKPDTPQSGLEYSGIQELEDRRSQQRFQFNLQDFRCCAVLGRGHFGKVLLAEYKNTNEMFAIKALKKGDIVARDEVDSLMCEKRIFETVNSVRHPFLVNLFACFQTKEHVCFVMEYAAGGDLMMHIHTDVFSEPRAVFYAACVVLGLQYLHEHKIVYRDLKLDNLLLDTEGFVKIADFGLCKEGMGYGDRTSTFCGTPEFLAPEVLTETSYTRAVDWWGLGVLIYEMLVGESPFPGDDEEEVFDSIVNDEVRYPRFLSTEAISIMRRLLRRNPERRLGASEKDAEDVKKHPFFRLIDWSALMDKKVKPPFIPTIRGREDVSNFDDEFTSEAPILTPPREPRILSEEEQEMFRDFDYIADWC

[18] = molecular target: IGF-1R(h), activated (Homo sapiens (Human), UniProt P08069); assay type: biochemical; conditions: read-out: The percentage of the remaining active protein
[19] = molecular target: MARK1(h) (Homo sapiens (Human), UniProt Q9P0L2); assay type: biochemical; conditions: read-out: The percentage of the remaining active protein
[20] = molecular target: Plk1(h) (Homo sapiens (Human), UniProt P53350); assay type: biochemical; conditions: read-out: The percentage of the remaining active protein
[21] = molecular target: Mnk2(h) (Homo sapiens (Human), UniProt Q9HBH9); assay type: biochemical; conditions: read-out: The percentage of the remaining active protein
[22] = molecular target: MRCKβ(h) (Homo sapiens (Human), UniProt Q9Y5S2); assay type: biochemical; conditions: read-out: The percentage of the remaining active protein
MRCKβ(h), sequence (Q9Y5S2 whole entry): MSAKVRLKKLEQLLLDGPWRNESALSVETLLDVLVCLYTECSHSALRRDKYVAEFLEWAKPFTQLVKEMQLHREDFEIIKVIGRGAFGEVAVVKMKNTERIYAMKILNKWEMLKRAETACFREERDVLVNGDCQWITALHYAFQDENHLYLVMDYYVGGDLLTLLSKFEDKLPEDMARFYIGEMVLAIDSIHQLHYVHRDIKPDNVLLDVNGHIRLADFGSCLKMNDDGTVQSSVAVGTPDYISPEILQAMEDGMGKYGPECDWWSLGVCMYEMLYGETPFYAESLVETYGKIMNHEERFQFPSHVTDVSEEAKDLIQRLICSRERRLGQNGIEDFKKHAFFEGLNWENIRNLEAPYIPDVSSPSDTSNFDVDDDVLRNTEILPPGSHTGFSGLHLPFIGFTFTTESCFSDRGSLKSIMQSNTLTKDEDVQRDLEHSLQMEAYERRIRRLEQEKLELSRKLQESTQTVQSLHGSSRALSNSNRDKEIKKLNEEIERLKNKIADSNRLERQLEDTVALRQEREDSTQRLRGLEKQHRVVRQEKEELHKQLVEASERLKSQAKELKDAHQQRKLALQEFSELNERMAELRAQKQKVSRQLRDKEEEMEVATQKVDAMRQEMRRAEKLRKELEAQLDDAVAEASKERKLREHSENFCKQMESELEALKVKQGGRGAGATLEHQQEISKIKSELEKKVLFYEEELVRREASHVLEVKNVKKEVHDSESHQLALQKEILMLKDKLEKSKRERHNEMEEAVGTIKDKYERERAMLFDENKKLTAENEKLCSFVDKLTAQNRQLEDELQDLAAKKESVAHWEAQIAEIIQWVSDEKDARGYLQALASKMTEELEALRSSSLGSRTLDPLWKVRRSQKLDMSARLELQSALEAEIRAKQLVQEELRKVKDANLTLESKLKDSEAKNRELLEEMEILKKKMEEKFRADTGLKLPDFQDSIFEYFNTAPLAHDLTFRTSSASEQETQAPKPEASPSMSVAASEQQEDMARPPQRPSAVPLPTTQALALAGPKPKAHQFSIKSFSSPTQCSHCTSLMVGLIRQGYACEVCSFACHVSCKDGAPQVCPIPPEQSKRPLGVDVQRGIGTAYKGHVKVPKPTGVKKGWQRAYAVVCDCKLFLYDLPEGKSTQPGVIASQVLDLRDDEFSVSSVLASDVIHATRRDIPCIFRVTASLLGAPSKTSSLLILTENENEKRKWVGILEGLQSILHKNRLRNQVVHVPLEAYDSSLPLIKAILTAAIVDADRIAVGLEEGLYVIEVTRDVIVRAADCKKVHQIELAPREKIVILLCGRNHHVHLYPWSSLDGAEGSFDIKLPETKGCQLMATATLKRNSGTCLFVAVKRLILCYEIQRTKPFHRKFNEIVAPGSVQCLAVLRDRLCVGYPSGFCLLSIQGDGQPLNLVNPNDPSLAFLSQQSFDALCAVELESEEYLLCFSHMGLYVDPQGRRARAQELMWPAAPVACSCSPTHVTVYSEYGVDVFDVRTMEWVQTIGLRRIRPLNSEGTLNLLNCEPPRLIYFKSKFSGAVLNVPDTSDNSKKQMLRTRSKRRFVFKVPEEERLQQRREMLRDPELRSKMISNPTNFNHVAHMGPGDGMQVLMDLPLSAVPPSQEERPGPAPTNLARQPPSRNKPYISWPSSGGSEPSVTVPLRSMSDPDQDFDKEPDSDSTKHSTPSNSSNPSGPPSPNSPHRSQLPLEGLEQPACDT

[23] = molecular target: PI3 Kinase (p110d/p85a)(h) (Homo sapiens (Human), UniProt O00329); assay type: biochemical; conditions: read-out: The percentage of the remaining active protein
[24] = molecular target: Lck(h) activated (Homo sapiens (Human), UniProt P06239); assay type: biochemical; conditions: read-out: The percentage of the remaining active protein
[25] = molecular target: SRPK2(h) (Homo sapiens (Human), UniProt P78362); assay type: biochemical; conditions: read-out: The percentage of the remaining active protein
[26] = molecular target: Pim-3(h) (Homo sapiens (Human), UniProt Q86V86); assay type: biochemical; conditions: read-out: The percentage of the remaining active protein
[27] = molecular target: LRRK2(h) (Homo sapiens (Human), UniProt Q5S007); assay type: biochemical; conditions: read-out: The percentage of the remaining active protein
[28] = molecular target: GRK6(h) (Homo sapiens (Human), UniProt P43250); assay type: biochemical; conditions: read-out: The percentage of the remaining active protein
[29] = molecular target: PI3KC2g(h) (Homo sapiens (Human), UniProt O75747); assay type: biochemical; conditions: read-out: The percentage of the remaining active protein
[30] = molecular target: Lyn(m) (Mus musculus (Mouse), UniProt P25911); assay type: biochemical; conditions: read-out: The percentage of the remaining active protein
[31] = molecular target: Met(Y1248H)(h) (Homo sapiens (Human), UniProt P08581, Y1248H); assay type: biochemical; conditions: read-out: The percentage of the remaining active protein
[32] = molecular target: PKBγ(h) (Homo sapiens (Human), UniProt Q9Y243); assay type: biochemical; conditions: read-out: The percentage of the remaining active protein
[33] = molecular target: SAPK4(h) (Homo sapiens (Human), UniProt O15264); assay type: biochemical; conditions: read-out: The percentage of the remaining active protein
[34] = molecular target: SAPK2a(T106M)(h) (Homo sapiens (Human), UniProt Q16539, T106M); assay type: biochemical; conditions: read-out: The percentage of the remaining active protein
[35] = molecular target: IR(h) (Homo sapiens (Human), UniProt P06213); assay type: biochemical; conditions: read-out: The percentage of the remaining active protein

Ret (V804L)(h), sequence (P07949 29-1114 V804L): as the sequence (P07949 29-1114) above, with V776L counted along it

Cc1ccc(NC(=O)c2ccc(C)c(C(F)(F)F)c2)cc1C#Cc1nn([C@H]2CC[C@H](O)CC2)c2ncnc(N)c12 [Compound 93]
remaining activity at 10 µM [1]: 1% | remaining activity at 10 µM [2]: 100% | remaining activity at 10 µM [3]: 109% | remaining activity at 10 µM [4]: 90% | remaining activity at 10 µM ([5]; Ret(h), 10 μM, read-out: The percentage of the remaining active protein): 2% | IC50 ([5]; Ret, ATP at Km): 4 nM | remaining activity at 10 µM [6]: 119% | remaining activity at 10 µM [7]: 105% | remaining activity at 10 µM [8]: 94% | remaining activity at 10 µM [9]: 102% | remaining activity at 10 µM [10]: 101% | The percentage of the remaining active protein [11]: 62% | remaining activity at 10 µM [12]: 4% | remaining activity at 10 µM [13]: 94% | remaining activity at 10 µM [14]: -1% | remaining activity at 10 µM [15]: 1% | remaining activity at 10 µM [16]: 112% | remaining activity at 10 µM [17]: 97% | remaining activity at 10 µM [18]: 91% | remaining activity at 10 µM [19]: 94% | remaining activity at 10 µM [20]: 92% | remaining activity at 10 µM [21]: 96% | remaining activity at 10 µM [22]: 87% | remaining activity at 10 µM [23]: 74% | remaining activity at 10 µM [24]: 0% | remaining activity at 10 µM [25]: 107% | remaining activity at 10 µM [26]: 99% | remaining activity at 10 µM [27]: 15% | remaining activity at 10 µM [28]: 100% | remaining activity at 10 µM [29]: 98% | remaining activity at 10 µM [30]: -1% | remaining activity at 10 µM [31]: 123% | remaining activity at 10 µM [32]: 94% | remaining activity at 10 µM [33]: 80% | remaining activity at 10 µM [34]: 88% | remaining activity at 10 µM [35]: 97%
